Usually IC50 stands for the point on the concentration scale where inhibition reaches its midpoint.

Structures are written as SMILES.

This experiment concerns the target recombinant human SAE enzyme (Homo sapiens (Human), UniProt Q9UBT2). Kind of experiment: SAE HTRF enzyme assay. In kind it is biochemical. Particulars: for Percent Inhibition: Concentration 0.111 μM; for IC50: class symbols A/B/C. The procedure, abridged: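 HTRF read-out using Eu-cryptate anti-Flag and allophycocyanin anti-GST antibodies, added with EDTA stop buffer and read after 2 h at 24 °C. The preceding reaction ran 105 min at 24 °C: 0.11 nM recombinant SAE, 0.5 μM ATP, Sumo-Flag, Ubc9-GST, pH 7.5. Values given as single-concentration inhibition or IC50.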

recombinant human SAE enzyme, sequence (Q9UBT2 whole entry): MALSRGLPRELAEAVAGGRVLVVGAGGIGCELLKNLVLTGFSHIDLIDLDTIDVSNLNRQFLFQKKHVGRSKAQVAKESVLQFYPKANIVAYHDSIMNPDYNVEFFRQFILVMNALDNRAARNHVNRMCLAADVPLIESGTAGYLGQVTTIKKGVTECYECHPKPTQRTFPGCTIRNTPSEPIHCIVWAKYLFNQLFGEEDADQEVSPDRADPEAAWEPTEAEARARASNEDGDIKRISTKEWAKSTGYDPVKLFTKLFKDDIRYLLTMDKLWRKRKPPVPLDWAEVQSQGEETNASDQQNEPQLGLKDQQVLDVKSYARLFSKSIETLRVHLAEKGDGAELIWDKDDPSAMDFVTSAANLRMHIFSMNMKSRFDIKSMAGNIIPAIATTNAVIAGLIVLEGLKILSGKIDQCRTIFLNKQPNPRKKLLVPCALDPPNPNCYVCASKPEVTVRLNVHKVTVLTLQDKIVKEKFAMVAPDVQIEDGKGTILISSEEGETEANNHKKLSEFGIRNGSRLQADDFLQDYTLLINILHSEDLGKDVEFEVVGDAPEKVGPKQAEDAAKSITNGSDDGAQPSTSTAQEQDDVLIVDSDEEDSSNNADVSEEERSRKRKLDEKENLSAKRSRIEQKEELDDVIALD
recombinant human SAE enzyme, sequence (Q9UBE0 whole entry partner): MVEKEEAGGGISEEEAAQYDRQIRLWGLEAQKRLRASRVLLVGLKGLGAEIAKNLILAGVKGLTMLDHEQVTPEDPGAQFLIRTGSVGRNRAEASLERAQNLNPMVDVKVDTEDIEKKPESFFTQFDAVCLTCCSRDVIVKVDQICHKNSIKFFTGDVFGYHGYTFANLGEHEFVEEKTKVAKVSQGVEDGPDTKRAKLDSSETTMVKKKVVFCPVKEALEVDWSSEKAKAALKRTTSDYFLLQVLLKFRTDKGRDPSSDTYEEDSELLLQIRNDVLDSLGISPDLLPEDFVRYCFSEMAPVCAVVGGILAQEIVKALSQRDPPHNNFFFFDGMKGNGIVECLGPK

In the case of `CC(N)(c1cccc(Cl)c1)c1csc(C(=O)c2cncnc2N[C@@H]2C[C@H](COS(N)(=O)=O)[C@@H](O)[C@H]2O)c1` (single isomer, unassigned) [I-8b, [(1R,2R,3S,4R)-4-{[5-({4-[(1S)-1-amino-1-(3-chlorophenyl)ethyl]-2-thienyl}carbonyl)pyrimidin-4-yl]amino}-2,3-dihydroxycyclopentyl]methyl sulfamate or [(1R,2R,3S,4R)-4-{[5-({4-[(1R)-1-amino-1-(3-chlorophenyl)ethyl]-2-thienyl}carbonyl)pyrimidin-4-yl]amino}-2,3-dihydroxycyclopentyl]methyl sulfamate], the “Percent Inhibition” value was found to be 99 and the concentration for half-maximal inhibition (IC50) is under 0.01 µM.
On to `NS(=O)(=O)OC[C@H]1C[C@@H](Nc2ncncc2C(=O)c2cc([C@H](O)c3cccc(Cl)c3)c(Cl)s2)C[C@@H]1O` (single isomer, unassigned) [I-9a, [(1R,2S,4R)-4-{[5-({5-chloro-4-[(R)-(3-chlorophenyl)(hydroxy)methyl]-2-thienyl}carbonyl)pyrimidin-4-yl]amino}-2-hydroxycyclopentyl]methyl sulfamate or [(1R,2S,4R)-4-{[5-({5-chloro-4-[(S)-(3-chlorophenyl)(hydroxy)methyl]-2-thienyl}carbonyl)pyrimidin-4-yl]amino}-2-hydroxycyclopentyl]methyl sulfamate], for which the “Percent Inhibition” value is recorded as 99 and the 50% inhibitory concentration (IC50) is under 0.01 µM.
Turning to `NS(=O)(=O)OC[C@H]1C[C@@H](Nc2ncncc2C(=O)c2cc([C@H](O)c3cccc(Cl)c3)c(Cl)s2)C[C@@H]1O` (single isomer, unassigned) [I-9b, [(1R,2S,4R)-4-{[5-({5-chloro-4-[(R)-(3-chlorophenyl)(hydroxy)methyl]-2-thienyl}carbonyl)pyrimidin-4-yl]amino}-2-hydroxycyclopentyl]methyl sulfamate or [(1R,2S,4R)-4-{[5-({5-chloro-4-[(S)-(3-chlorophenyl)(hydroxy)methyl]-2-thienyl}carbonyl)pyrimidin-4-yl]amino}-2-hydroxycyclopentyl]methyl sulfamate], the “Percent Inhibition” value worked out at 97 and the 50% inhibitory concentration (IC50) is under 0.01 µM.
`N[C@@H](c1cccc(Br)n1)c1cc(C(=O)c2cncnc2N[C@@H]2C[C@H](COS(N)(=O)=O)[C@@H](O)[C@H]2O)sc1Cl` (single isomer, unassigned) [I-10a, [(1R,2R,3S,4R)-4-{[5-({4-[(R)-amino(6-bromopyridin-2-yl)methyl]-5-chloro-2-thienyl}carbonyl)pyrimidin-4-yl]amino}-2,3-dihydroxycyclopentyl]methyl sulfamate or [(1R,2R,3S,4R)-4-{[5-({4-[(S)-amino(6-bromopyridin-2-yl)methyl]-5-chloro-2-thienyl}carbonyl)pyrimidin-4-yl]amino}-2,3-dihydroxycyclopentyl]methyl sulfamate]: the “Percent Inhibition” value amounted to 100 and the 50% inhibitory concentration (IC50) is under 0.01 µM.
As to `N[C@@H](c1cccc(Br)n1)c1cc(C(=O)c2cncnc2N[C@@H]2C[C@H](COS(N)(=O)=O)[C@@H](O)[C@H]2O)sc1Cl` (single isomer, unassigned) [I-10b, [(1R,2R,3S,4R)-4-{[5-({4-[(R)-amino(6-bromopyridin-2-yl)methyl]-5-chloro-2-thienyl}carbonyl)pyrimidin-4-yl]amino}-2,3-dihydroxycyclopentyl]methyl sulfamate or [(1R,2R,3S,4R)-4-{[5-({4-[(S)-amino(6-bromopyridin-2-yl)methyl]-5-chloro-2-thienyl}carbonyl)pyrimidin-4-yl]amino}-2,3-dihydroxycyclopentyl]methyl sulfamate], the “Percent Inhibition” value was 97 and the IC50 was under 0.01 µM.
Consider `Cc1sc(C(=O)c2cncnc2N[C@@H]2C[C@H](COS(N)(=O)=O)[C@@H](O)C2)cc1[C@H](O)c1cccc(Cl)c1` (single isomer, unassigned) [I-11a, [(1R,2S,4R)-4-{[5-({4-[(R)-(3-chlorophenyl)(hydroxy)methyl]-5-methyl-2-thienyl}carbonyl)pyrimidin-4-yl]amino}-2-hydroxycyclopentyl]methyl sulfamate or [(1R,2S,4R)-4-{[5-({4-[(S)-(3-chlorophenyl)(hydroxy)methyl]-5-methyl-2-thienyl}carbonyl)pyrimidin-4-yl]amino}-2-hydroxycyclopentyl]methyl sulfamate], for which the “Percent Inhibition” value was found to be 93 and the IC50 was under 0.01 µM.
On to `Cc1sc(C(=O)c2cncnc2N[C@@H]2C[C@H](COS(N)(=O)=O)[C@@H](O)C2)cc1[C@H](O)c1cccc(Cl)c1` (single isomer, unassigned) [I-11b, [(1R,2S,4R)-4-{[5-({4-[(R)-(3-chlorophenyl)(hydroxy)methyl]-5-methyl-2-thienyl}carbonyl)pyrimidin-4-yl]amino}-2-hydroxycyclopentyl]methyl sulfamate or [(1R,2S,4R)-4-{[5-({4-[(S)-(3-chlorophenyl)(hydroxy)methyl]-5-methyl-2-thienyl}carbonyl)pyrimidin-4-yl]amino}-2-hydroxycyclopentyl]methyl sulfamate], for which the “Percent Inhibition” value worked out at 99 and the IC50 is under 0.01 µM.
Regarding `C[C@](N)(c1cccc(Cl)c1)c1csc(C(=O)c2cncnc2N[C@@H]2C[C@H](COS(N)(=O)=O)[C@@H](O)C2)c1` (single isomer, unassigned) [I-12a, [(1R,2S,4R)-4-{[5-({4-[(1S)-1-amino-1-(3-chlorophenyl)ethyl]-2-thienyl}carbonyl)pyrimidin-4-yl]amino}-2-hydroxycyclopentyl]methyl sulfamate or [(1R,2S,4R)-4-{[5-({4-[(1R)-1-amino-1-(3-chlorophenyl)ethyl]-2-thienyl}carbonyl)pyrimidin-4-yl]amino}-2-hydroxycyclopentyl]methyl sulfamate], the “Percent Inhibition” value worked out at 84 and the IC50 was in the range of 0.01 to 0.1 µM.
With `C[C@](N)(c1cccc(Cl)c1)c1csc(C(=O)c2cncnc2N[C@@H]2C[C@H](COS(N)(=O)=O)[C@@H](O)C2)c1` (single isomer, unassigned) [I-12b, [(1R,2S,4R)-4-{[5-({4-[(1S)-1-amino-1-(3-chlorophenyl)ethyl]-2-thienyl}carbonyl)pyrimidin-4-yl]amino}-2-hydroxycyclopentyl]methyl sulfamate or [(1R,2S,4R)-4-{[5-({4-[(1R)-1-amino-1-(3-chlorophenyl)ethyl]-2-thienyl}carbonyl)pyrimidin-4-yl]amino}-2-hydroxycyclopentyl]methyl sulfamate], the “Percent Inhibition” value was 100 and the IC50 was under 0.01 µM.
For `N[C@@H](c1cccc(Cl)c1)c1cc(C(=O)c2cncnc2N[C@@H]2C[C@H](COS(N)(=O)=O)[C@@H](O)[C@H]2O)sc1Cl` (single isomer, unassigned) [I-14a, [(1R,2R,3S,4R)-4-{[5-({4-[(S)-Amino(3-chlorophenyl)methyl]-5-chloro-2-thienyl)carbonyl)pyrimidin-4-yl]amino}-2,3-dihydroxycyclopentyl]methyl sulfamate or [(1R,2R,3S,4R)-4-{[5-({4-[(R)-Amino(3-chlorophenyl)methyl]-5-chloro-2-thienyl}carbonyl)pyrimidin-4-yl]amino}-2,3-dihydroxycyclopentyl]methyl sulfamate], the “Percent Inhibition” value is on record as 101 and the concentration for half-maximal inhibition (IC50) was under 0.01 µM.
Consider `N[C@@H](c1cccc(Cl)c1)c1cc(C(=O)c2cncnc2N[C@@H]2C[C@H](COS(N)(=O)=O)[C@@H](O)[C@H]2O)sc1Cl` (single isomer, unassigned) [I-14b, [(1R,2R,3S,4R)-4-{[5-({4-[(S)-Amino(3-chlorophenyl)methyl]-5-chloro-2-thienyl)carbonyl)pyrimidin-4-yl]amino}-2,3-dihydroxycyclopentyl]methyl sulfamate or [(1R,2R,3S,4R)-4-{[5-({4-[(R)-Amino(3-chlorophenyl)methyl]-5-chloro-2-thienyl}carbonyl)pyrimidin-4-yl]amino}-2,3-dihydroxycyclopentyl]methyl sulfamate], for which the “Percent Inhibition” value is 95 and the IC50 was under 0.01 µM.
On the same counts, the results for `N[C@H](c1cccc(Cl)c1)c1cc(C(=O)c2cncnc2N[C@@H]2C[C@H](COS(N)(=O)=O)[C@@H](O)C2)sc1Cl` (single isomer, unassigned) [I-15a, [(1R,2S,4R)-4-{[5-({4-[(R)-amino(3-chlorophenyl)methyl]-5-chloro-2-thienyl}carbonyl)pyrimidin-4-yl]amino}-2-hydroxycyclopentyl]methyl sulfamate or [(1R,2S,4R)-4-{[5-({4-[(S)-amino(3-chlorophenyl)methyl]-5-chloro-2-thienyl}carbonyl)pyrimidin-4-yl]amino}-2-hydroxycyclopentyl]methyl sulfamate] are 66 and 0.01 to 0.1 µM.
Consider `N[C@H](c1cccc(Cl)c1)c1cc(C(=O)c2cncnc2N[C@@H]2C[C@H](COS(N)(=O)=O)[C@@H](O)C2)sc1Cl` (single isomer, unassigned) [I-15b, [(1R,2S,4R)-4-{[5-({4-[(R)-amino(3-chlorophenyl)methyl]-5-chloro-2-thienyl}carbonyl)pyrimidin-4-yl]amino}-2-hydroxycyclopentyl]methyl sulfamate or [(1R,2S,4R)-4-{[5-({4-[(S)-amino(3-chlorophenyl)methyl]-5-chloro-2-thienyl}carbonyl)pyrimidin-4-yl]amino}-2-hydroxycyclopentyl]methyl sulfamate], for which the “Percent Inhibition” value is on record as 100 and the IC50 was under 0.01 µM.
On to `NS(=O)(=O)OC[C@H]1C[C@@H](Nc2ncncc2C(=O)c2cc([C@@H](O)c3cccc(Br)c3)c(Cl)s2)C[C@@H]1O` (single isomer, unassigned) [I-16a, [(1R,2S,4R)-4-{[5-({4-[(S)-(3-Bromophenyl)(hydroxy)methyl-5-chloro-2-thienyl}carbonyl)pyrimidin-4-yl]amino}-2-hydroxycyclopentyl]methyl sulfamate or [(1R,2S,4R)-4-{[5-({4-[(R)-(3-Bromophenyl)(hydroxy)methyl]-5-chloro-2-thienyl}carbonyl)pyrimidin-4-yl]amino}-2-hydroxycyclopentyl]methyl sulfamate], for which the “Percent Inhibition” value was found to be 99 and the concentration for half-maximal inhibition (IC50) is under 0.01 µM.

The values above are taken from US10780090B2, “Heteroaryl compounds useful as inhibitors of SUMO activating enzyme” (Millennium Pharmaceuticals, Inc., priority 2014, dated 2020).
